Experiment: xn = mol fraction of the nth substance listed
Details: 101 kPa, Liquid

CCCCCCCCO [octan-1-ol] + COc1cc2c(cc1O)CC1c3c(cc(O)c(OC)c3-2)CCN1C
x2 = 0
Details | mass density [kg/m3]
283.15 K | 832.13
288.15 K | 828.71
293.15 K | 825.27
298.15 K | 821.81
303.15 K | 818.33
308.15 K | 814.84
313.15 K | 811.31
318.15 K | 807.76
323.15 K | 804.19
328.15 K | 800.58
333.15 K | 796.93

COc1cc2c(cc1O)CC1c3c(cc(O)c(OC)c3-2)CCN1C (stereo not drawn) [boldine] + CCCCCCCCO
mass density [kg/m3]
Details | x1 = 0.00398 | x1 = 0.00806 | x1 = 0.01216
283.15 K | 835.34 | 838.57 | 842.06
288.15 K | 831.91 | 835.14 | 838.62
293.15 K | 828.46 | 831.68 | 835.16
298.15 K | 825 | 828.21 | 831.68
303.15 K | 821.52 | 824.72 | 828.18
308.15 K | 818.01 | 821.21 | 824.66
313.15 K | 814.49 | 817.68 | 821.12
318.15 K | 810.93 | 814.12 | 817.55
323.15 K | 807.34 | 810.52 | 813.96
328.15 K | 803.73 | 806.9 | 810.33
333.15 K | 800.08 | 803.24 | 806.66

COc1cc2c(cc1O)CC1c3c(cc(O)c(OC)c3-2)CCN1C (stereo not drawn) [boldine] + CCCO
mass density [kg/m3]
Details | x1 = 0.00185 | x1 = 0.00374 | x1 = 0.00565 | x1 = 0.0076 | x1 = 0.00957 | x1 = 0.01158 | x1 = 0.01361
283.15 K | 814.99 | 818.36 | 821.77 | 825.23 | 828.61 | 832.08 | 835.59
288.15 K | 811.04 | 814.41 | 817.81 | 821.26 | 824.65 | 828.12 | 831.61
293.15 K | 807.05 | 810.42 | 813.82 | 817.26 | 820.65 | 824.12 | 827.61
298.15 K | 803.04 | 806.4 | 809.8 | 813.24 | 816.64 | 820.1 | 823.59
303.15 K | 799 | 802.35 | 805.75 | 809.2 | 812.59 | 816.05 | 819.54
308.15 K | 794.92 | 798.27 | 801.67 | 805.12 | 808.5 | 811.96 | 815.45
313.15 K | 790.81 | 794.14 | 797.55 | 800.98 | 804.37 | 807.83 | 811.31
318.15 K | 786.65 | 789.98 | 793.39 | 796.82 | 800.21 | 803.65 | 807.13
323.15 K | 782.43 | 785.77 | 789.17 | 792.6 | 795.99 | 799.42 | 802.91
328.15 K | 778.16 | 781.5 | 784.89 | 788.33 | 791.71 | 795.16 | 798.63
333.15 K | 773.81 | 777.16 | 780.54 | 783.99 | 787.37 | 790.82 | 794.3

COc1cc2c(cc1O)CC1c3c(cc(O)c(OC)c3-2)CCN1C (stereo not drawn) [boldine] + CC(C)O
mass density [kg/m3]
Details | x1 = 0.00187 | x1 = 0.00371 | x1 = 0.00563 | x1 = 0.00735 | x1 = 0.00957 | x1 = 0.01158 | x1 = 0.01364
283.15 K | 796.84 | 800.29 | 803.77 | 807.03 | 810.42 | 814.44 | 818.2
288.15 K | 792.75 | 796.21 | 799.68 | 802.94 | 806.37 | 810.34 | 814.09
293.15 K | 788.61 | 792.06 | 795.53 | 798.79 | 802.25 | 806.19 | 809.91
298.15 K | 784.39 | 787.84 | 791.32 | 794.57 | 798.05 | 801.97 | 805.66
303.15 K | 780.11 | 783.56 | 787.04 | 790.29 | 793.78 | 797.69 | 801.36
308.15 K | 775.77 | 779.22 | 782.69 | 785.94 | 789.45 | 793.35 | 797.01
313.15 K | 771.34 | 774.79 | 778.25 | 781.51 | 785.03 | 788.91 | 792.59
318.15 K | 766.8 | 770.26 | 773.72 | 776.98 | 780.51 | 784.38 | 788.09
323.15 K | 762.17 | 765.62 | 769.08 | 772.35 | 775.88 | 779.76 | 783.56
328.15 K | 757.42 | 760.87 | 764.34 | 767.61 | 771.14 | 775.02 | 778.85
333.15 K | 752.55 | 756.01 | 759.48 | 762.75 | 766.27 | 770.17 | 773.99

CO [methanol] + COc1cc2c(cc1O)CC1c3c(cc(O)c(OC)c3-2)CCN1C
x2 = 0
Details | mass density [kg/m3]
283.15 K | 801.08
288.15 K | 796.41
293.15 K | 791.71
298.15 K | 787.01
303.15 K | 782.29
308.15 K | 777.55
313.15 K | 772.78
318.15 K | 767.97
323.15 K | 763.12
328.15 K | 758.23
333.15 K | 753.29

CC(C)O [propan-2-ol] + COc1cc2c(cc1O)CC1c3c(cc(O)c(OC)c3-2)CCN1C
x2 = 0
Details | mass density [kg/m3]
283.15 K | 793.31
288.15 K | 789.22
293.15 K | 785.08
298.15 K | 780.87
303.15 K | 776.6
308.15 K | 772.25
313.15 K | 767.81
318.15 K | 763.28
323.15 K | 758.64
328.15 K | 753.88
333.15 K | 749.01

CCCCO [butan-1-ol] + COc1cc2c(cc1O)CC1c3c(cc(O)c(OC)c3-2)CCN1C
x2 = 0
Details | mass density [kg/m3]
283.15 K | 817.15
288.15 K | 813.38
293.15 K | 809.59
298.15 K | 805.77
303.15 K | 801.92
308.15 K | 798.05
313.15 K | 794.14
318.15 K | 790.19
323.15 K | 786.19
328.15 K | 782.14
333.15 K | 778.03

CCCCCO [pentan-1-ol] + COc1cc2c(cc1O)CC1c3c(cc(O)c(OC)c3-2)CCN1C
x2 = 0
Details | mass density [kg/m3]
283.15 K | 822.42
288.15 K | 818.79
293.15 K | 815.13
298.15 K | 811.45
303.15 K | 807.74
308.15 K | 804.01
313.15 K | 800.24
318.15 K | 796.43
323.15 K | 792.57
328.15 K | 788.67
333.15 K | 784.72

COc1cc2c(cc1O)CC1c3c(cc(O)c(OC)c3-2)CCN1C (stereo not drawn) [boldine] + CCCCO
mass density [kg/m3]
Details | x1 = 0.00228 | x1 = 0.00461 | x1 = 0.00696 | x1 = 0.00936 | x1 = 0.01178 | x1 = 0.01427 | x1 = 0.01678
283.15 K | 820.49 | 823.85 | 827.2 | 830.57 | 833.94 | 837.36 | 840.79
288.15 K | 816.73 | 820.08 | 823.43 | 826.79 | 830.16 | 833.57 | 837
293.15 K | 812.93 | 816.28 | 819.62 | 822.98 | 826.35 | 829.75 | 833.18
298.15 K | 809.11 | 812.45 | 815.8 | 819.15 | 822.52 | 825.92 | 829.34
303.15 K | 805.26 | 808.6 | 811.94 | 815.29 | 818.66 | 822.06 | 825.48
308.15 K | 801.39 | 804.72 | 808.06 | 811.4 | 814.77 | 818.16 | 821.58
313.15 K | 797.47 | 800.81 | 804.14 | 807.48 | 810.84 | 814.23 | 817.64
318.15 K | 793.52 | 796.85 | 800.17 | 803.52 | 806.87 | 810.25 | 813.67
323.15 K | 789.52 | 792.84 | 796.17 | 799.51 | 802.86 | 806.23 | 809.66
328.15 K | 785.47 | 788.79 | 792.11 | 795.45 | 798.79 | 802.17 | 805.59
333.15 K | 781.35 | 784.67 | 787.99 | 791.32 | 794.67 | 798.05 | 801.46

CCO [ethanol] + COc1cc2c(cc1O)CC1c3c(cc(O)c(OC)c3-2)CCN1C
x2 = 0
Details | mass density [kg/m3]
283.15 K | 797.96
288.15 K | 793.71
293.15 K | 789.44
298.15 K | 785.15
303.15 K | 780.83
308.15 K | 776.48
313.15 K | 772.09
318.15 K | 767.65
323.15 K | 763.17
328.15 K | 758.63
333.15 K | 754.01

COc1cc2c(cc1O)CC1c3c(cc(O)c(OC)c3-2)CCN1C (stereo not drawn) [boldine] + CCCCCCO
mass density [kg/m3]
Details | x1 = 0.00308 | x1 = 0.00633 | x1 = 0.00958
283.15 K | 831.02 | 834.31 | 837.66
288.15 K | 827.44 | 830.73 | 834.07
293.15 K | 823.83 | 827.12 | 830.46
298.15 K | 820.21 | 823.49 | 826.82
303.15 K | 816.56 | 819.84 | 823.16
308.15 K | 812.88 | 816.16 | 819.48
313.15 K | 809.17 | 812.44 | 815.76
318.15 K | 805.43 | 808.7 | 812.01
323.15 K | 801.65 | 804.91 | 808.22
328.15 K | 797.83 | 801.09 | 804.39
333.15 K | 793.97 | 797.22 | 800.51

CCCO [propan-1-ol] + COc1cc2c(cc1O)CC1c3c(cc(O)c(OC)c3-2)CCN1C
x2 = 0
Details | mass density [kg/m3]
283.15 K | 811.57
288.15 K | 807.62
293.15 K | 803.63
298.15 K | 799.62
303.15 K | 795.58
308.15 K | 791.49
313.15 K | 787.37
318.15 K | 783.22
323.15 K | 779.01
328.15 K | 774.73
333.15 K | 770.39

COc1cc2c(cc1O)CC1c3c(cc(O)c(OC)c3-2)CCN1C (stereo not drawn) [boldine] + CCCCCO
mass density [kg/m3]
Details | x1 = 0.00272 | x1 = 0.00547 | x1 = 0.00826
283.15 K | 825.74 | 829.04 | 832.39
288.15 K | 822.11 | 825.4 | 828.75
293.15 K | 818.44 | 821.73 | 825.07
298.15 K | 814.76 | 818.04 | 821.37
303.15 K | 811.05 | 814.33 | 817.65
308.15 K | 807.31 | 810.58 | 813.91
313.15 K | 803.53 | 806.8 | 810.12
318.15 K | 799.72 | 802.99 | 806.31
323.15 K | 795.87 | 799.13 | 802.45
328.15 K | 791.97 | 795.23 | 798.54
333.15 K | 788.02 | 791.28 | 794.59

CCCCCCO [hexan-1-ol] + COc1cc2c(cc1O)CC1c3c(cc(O)c(OC)c3-2)CCN1C
x2 = 0
Details | mass density [kg/m3]
283.15 K | 827.82
288.15 K | 824.25
293.15 K | 820.65
298.15 K | 817.03
303.15 K | 813.39
308.15 K | 809.71
313.15 K | 806
318.15 K | 802.27
323.15 K | 798.49
328.15 K | 794.67
333.15 K | 790.8

Source: the NIST ThermoML archive (doi:10.1016/j.fluid.2007.04.030)
